Test results from article PMC11323243, “Novel Inhibitors of SARS-CoV-2 RNA Identified through Virtual Screening” (Journal of Chemical Information and Modeling, 2024).
“Also recorded” adds a separate entry of the source.

Tested on: Omicron (BA.1) SARS-CoV-2
Assay: Antiviral activity, plaque reduction assay on Vero E6 cells
Type: cell-based
Details: not given

Row | SMILES | antiviral activity against SARS-CoV-2 (in words)
1 | OCC1CN(Cc2cc3c(cc2Cl)OCO3)CC1CN1CCOCC1 (centres unmarked) [Compound 178] | decrease in potency
2 | OCC1CN(Cc2cc3c(cc2Cl)OCO3)CC1CN1CCCCCC1 (centres unmarked) [Compound 269] | retained activity against the wild-type virus albeit with reduced potency
3 | Cc1cc2c(cc1CN1CC(CO)C(CN3CCOCC3)C1)OCCO2 (centres unmarked) [Compound 325] | did not inhibit wild-type virus; also recorded: loss of antiviral activity against SARS-CoV-2

Same assay, conditions: Severe acute respiratory syndrome coronavirus 2, Vero C1008, 72 h; read-out: EC50, effective concentration inhibiting 50% of the virus

Row | SMILES | EC50 [µM]
4 | OCC1CN(Cc2cc3c(cc2Cl)OCO3)CC1CN1CCOCC1 (centres unmarked) [Compound 178] | 103
5 | Cc1cc2c(cc1CN1CC(CO)C(CN3CCCC3)C1)OCO2 (centres unmarked) [Compound 789] | 44
6 | OC1CCCN(C2CCN(Cc3ncc[nH]3)CC2)C1 (centres unmarked) [Compound 21256088] | > 100
7 | Clc1ccc2c(N3CCN(CCCN4CCN(c5ccnc6cc(Cl)ccc56)CC4)CC3)ccnc2c1 [piperaquine, reference compound] | 11.6
8 | Cc1cc2c(cc1CN1CC(CO)C(CN3CCCCCC3)C1)OCCO2 (centres unmarked) [Compound 194] | 28.9
9 | Cc1cc2c(cc1CN1CC(CO)C(CN3CCN(C)CC3)C1)OCCO2 (centres unmarked) [Compound 782] | 4.07
10 | CN(C)CCN(C)CC1CN(Cc2ccc3c(c2)OCCO3)CC1CO (centres unmarked) [Compound 570] | 38.5
11 | OCC1CN(Cc2cc3c(cc2Cl)OCO3)CC1CN1CCCCCC1 (centres unmarked) [Compound 269] | 53.9
12 | NCCc1ccc(CN2CCC(O)(c3cccc(C(F)(F)F)c3)CC2)cc1 [Compound 188] | 17.2
13 | OC1CN(Cc2cccc3cc[nH]c23)CCN(c2ccncc2)C1 (centres unmarked) [Compound 229] | 26.8
14 | Cc1nc(CN)cc(N2CCC(C(O)c3nccn3C)CC2)n1 (centres unmarked) [Compound 32807865] | > 100
